Measured values: US10174037B2, “Dihydropyrazolopyrimidinone compounds as PDE2 inhibitors” (Merck Sharp & Dohme Corp., priority 2015, dated 2019)

target: human PDE2A1 (Homo sapiens (Human), UniProt O00408); assay: PDE selectivity IMAP FP assay, human PDE2A1; format: biochemical; settings: Human PDE2; Lab B; read-out: Human PDE2 Ki (nM) Lab B
Protocol: Selectivity for PDE2, as compared to other PDE families, was assessed using the IMAP® technology. Human PDE10A2 enzyme was prepared from cytosolic fractions of transiently transfected HEK cells.
A Labcyte POD 810 (Labcyte, Sunnyvale, Calif.) was used to dispense 200 nL from each well of the titration plate to make eleven copies of the assay plate for each titration, one copy for each PDE enzyme. A solution of each enzyme (dilution from aliquots, sufficient to produce 20% substrate conversion) and a separate solution of FAM-labeled cAMP or FAM-labeled cGMP from Molecular Devices (Sunnyvale, Calif., product # R7506 or cGMP#R7508), at a final concentration of 50 nM were made in the assay buffer (10 mM Tris HCl, pH 7.2, 10 mM MgCl2, 0.05% NaN3 0.01% Tween-20, and 1 mM DTT). Note that the substrate for PDE2 is 50 nM FAM cAMP containing 1000 nM of cGMP. The enzyme and the substrate were then added to the assay plates in two consecutive additions of 10 μL and then shaken to mix. The reaction was allowed to proceed at room temperature for 60 minutes. A binding solution was then made from the kit components, comprised of 80% Solution A, 20% Solution B and binding reagent at a volume of 1/600 the total binding solution. The enzymatic reaction was stopped by addition of 60 μL of the binding solution to each well of the assay plate. […] The plates were incubated at room temperature for one hour, then the parallel and perpendicular fluorescence was measured using a Tecan Genios Pro plate reader (Tecan, Switzerland). […] The intrinsic PDE2 inhibitory activity of a compound which may be used in accordance with the present invention may be determined by these assays. […]
The PDE2 Ki is a measure of the ability of the test compound to inhibit the action of the PDE2 enzyme.

Chain of human PDE2A1 (O00408 other isoform, or with tags, fused parts or gaps): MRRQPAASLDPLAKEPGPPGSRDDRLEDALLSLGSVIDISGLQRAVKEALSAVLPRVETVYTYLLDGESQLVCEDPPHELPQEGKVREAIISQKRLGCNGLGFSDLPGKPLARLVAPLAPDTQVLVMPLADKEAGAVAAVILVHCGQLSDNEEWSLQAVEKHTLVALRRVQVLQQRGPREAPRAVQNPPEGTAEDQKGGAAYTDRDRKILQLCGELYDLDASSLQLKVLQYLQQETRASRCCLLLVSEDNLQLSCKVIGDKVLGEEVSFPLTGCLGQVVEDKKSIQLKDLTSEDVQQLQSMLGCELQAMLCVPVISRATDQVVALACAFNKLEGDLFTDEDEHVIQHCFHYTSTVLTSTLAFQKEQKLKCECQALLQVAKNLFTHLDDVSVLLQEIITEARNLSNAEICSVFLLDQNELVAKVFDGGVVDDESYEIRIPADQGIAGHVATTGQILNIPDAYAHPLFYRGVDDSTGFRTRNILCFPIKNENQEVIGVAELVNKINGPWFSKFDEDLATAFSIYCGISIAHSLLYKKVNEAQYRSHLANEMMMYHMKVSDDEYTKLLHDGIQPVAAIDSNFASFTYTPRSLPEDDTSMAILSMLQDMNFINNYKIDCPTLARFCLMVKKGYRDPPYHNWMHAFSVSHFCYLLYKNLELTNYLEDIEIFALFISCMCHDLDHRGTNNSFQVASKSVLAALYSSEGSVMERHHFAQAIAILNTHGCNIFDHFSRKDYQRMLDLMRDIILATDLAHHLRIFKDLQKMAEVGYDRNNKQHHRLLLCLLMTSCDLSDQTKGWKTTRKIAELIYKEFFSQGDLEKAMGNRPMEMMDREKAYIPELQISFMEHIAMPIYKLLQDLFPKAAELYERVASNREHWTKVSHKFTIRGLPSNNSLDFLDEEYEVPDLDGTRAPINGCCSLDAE

Going from `CC[C@@H](O)c1nn([C@@H](C)c2ccc(C(F)(F)F)cc2)c2nc(O)[nH]c(=O)c12` (mixture of isomers) [Example 294, (R,S)- and (R,R)- and (S,S)- and (S,R)-6-Hydroxy-3-(1-hydroxypropyl)-1-(1-(4-(trifluoromethyl)phenyl)ethyl)-1H-pyrazolo[3,4-d]pyrimidin-4(5H)-one] to `CC(c1ccc(C(F)(F)C(F)(F)F)cc1)n1nc(CO)c2c(=O)[nH]c(O)nc21` (single isomer, unassigned) [Example 31, (R)- or (S)-6-Hydroxy-3-(hydroxymethyl)-1-(1-(4-(perfluoroethyl)phenyl)ethyl)-1H-pyrazolo[3,4-d]pyrimidin-4(5H)-one], the Ki falls from 105 nM to 50 nM (2.1-fold). The second binds more tightly here.

First: CC[C@@H](O)c1nn([C@@H](C)c2ccc(C(F)(F)F)cc2)c2nc(O)[nH]c(=O)c12 (mixture of isomers) [Example 295, (R,S)- and (R,R)- and (S,S)- and (S,R)-6-Hydroxy-3-(1-hydroxypropyl)-1-(1-(4-(trifluoromethyl)phenyl)ethyl)-1H-pyrazolo[3,4-d]pyrimidin-4(5H)-one]
Second: CC(c1ccc(C(F)(F)C(F)(F)F)cc1)n1nc(CO)c2c(=O)[nH]c(O)nc21 (single isomer, unassigned) [Example 32, (S)- or (R)-6-Hydroxv-3-(hydroxymethyl)-1-(1-(4-(perfluoroethyl)phenyl)ethyl)-1H-pyrazolo[3,4-d]pyrimidin-4(5H)-one]
The Ki of the first is 11-fold lower: 168 nM for the first, roughly 1900 nM for the second.

First: CC1(C(c2ccc(C(F)(F)F)cc2)n2nc(CO)c3c(=O)[nH]c(O)nc32)CC1 (single isomer, unassigned) [Example 4]
Second: CC1(C(c2ccc(C(F)(F)F)c(F)c2)n2nc(CO)c3c(=O)[nH]c(O)nc32)CC1 (single isomer, unassigned) [Example 16]
The Ki of the first is 2.1-fold lower: 342 nM for the first, 702 nM for the second. The first binds more tightly here.

Compared with `CC1(C(c2ccc(C(F)(F)F)c(F)c2)n2nc(CO)c3c(=O)[nH]c(O)nc32)CC1` (single isomer, unassigned) [Example 17], `CC(c1ccc(C(F)(F)F)cc1F)n1nc(CO)c2c(=O)[nH]c(N(C)C)nc21` (single isomer, unassigned) [Example 80, (R)- or (S)-6-(Dimethylamino)-1-(1-(2-fluoro-4-(trifluoromethyl)phenyl)ethyl)-3-(hydroxymethyl)-1H-pyrazolo[3,4-d]pyrimidin-4(5H)-one] is 2.2-fold lower in Ki: 55 nM for the first, 25 nM for the second.

First: CN(C)c1nc2c(c(CO)nn2C(c2ccc(C(F)F)cc2)C2CC2)c(=O)[nH]1 (single isomer, unassigned) [Example 63]
Second: CC(c1ccc(C(F)F)cc1)n1nc(CO)c2c(=O)[nH]c(N(C)C)nc21 (single isomer, unassigned) [Example 82, (R)- or (S)-1-(1-(4-(Difluoromethyl)phenyl)ethyl)-6-(dimethylarnino)-3-(hydroxymethyl)-1H-pyrazolo[3,4-d]pyrimidin-4(5H)-one]
The Ki of the first is 11-fold lower: 3.2 nM for the first, 35 nM for the second. The first binds more tightly here.

Going from `CC(c1ccc(C(C)(C)C)cc1)n1nc(CO)c2c(=O)[nH]c(N(C)C)nc21` (single isomer, unassigned) [Example 67, (S)- or (R)-1-(1-(4-tert-Butylphenyl)ethyl)-6-(dimethylamino)-3-(hydroxymethyl)-1H-pyrazolo[3,4-d]pyrimidin-4(5H)-one] to `CC(c1ccc(C(C)(F)F)cc1)n1nc(CO)c2c(=O)[nH]c(N(C)C)nc21` (single isomer, unassigned) [Example 102, (R)- or (S)-1-(1-(4-(1,1-Difluoroethyl)phenyl)ethyl)-6-(dimethylamino)-3-(hydroxymethyl)-1H-pyrazolo[3,4-d]pyrimidin-4(5H)-one], the Ki rises from 0.25 nM to 9.9 nM (40-fold).

First: CC(c1ccc(CC(F)(F)F)cc1)n1nc(CO)c2c(=O)[nH]c(N(C)C)nc21 (single isomer, unassigned) [Example 70, (R)- or (S)-6-(Dimethylamino)-3-(hydroxymethyl)-1-(1-(4-(2,2,2-trifluoroethyl)phenyl)ethyl)-1H-pvrazolo[3,4-d]pyrimidin-4(5H)-one]
Second: CC(C)C(c1ccc(CC(F)(F)F)cc1)n1nc(CO)c2c(=O)[nH]c(N(C)C)nc21 (single isomer, unassigned) [Example 89, (S)- or (R)-6-(Dimethylamino)-3-(hydroxymethyl)-1-(2-methyl-1-(4-(2,2,2-trifluoroethyl)phenyl)propyl)-1H-pyrazolo[3,4-d]pyrimidin-4(5H)-one]
The Ki of the first is 20-fold higher: 4.1 nM for the first, 0.21 nM for the second. The second binds more tightly here.

First: CCC(c1ccc(C(F)(F)F)cc1)n1nc(CO)c2c(=O)[nH]c(N(C)C)nc21 (single isomer, unassigned) [Example 72, (R)- or (S)-6-(Dimethylamino)-3-(hydroxymethyl)-1-(1-(4-(trifluoromethyl)phenyl)propyl)-1H-pyrazolo[3,4-d]pyrimidin-4(5H)-one]
Second: CCC(c1ccc(C(C)(F)F)cc1)n1nc(CO)c2c(=O)[nH]c(N(C)C)nc21 (single isomer, unassigned) [Example 136, (R)- or (S)-1-(1-(4-(1,1-Difluoroethyl)phenyl)propyl)-6-(dimethylamino)-3-(hydroxymethyl)-1H-pyrazolo[3,4-d]pyrimidin-4(5H)-one]
The Ki of the first is 1.5-fold higher: 2.9 nM for the first, 1.9 nM for the second. The second binds more tightly here.

Going from `CCC(c1ccc(C(F)F)cc1)n1nc(CO)c2c(=O)[nH]c(N(C)C)nc21` (single isomer, unassigned) [Example 92, (R)- or (S)-1-(1-(4-(Difluoromethyl)phenyl)propyl)-6-(dimethylamino)-3-(hydroxymethyl)-1H-pyrazolo[3,4-d]pyrimidin-4(5H)-one] to `CCC(c1ccc(OC(F)F)cc1)n1nc(CO)c2c(=O)[nH]c(N(C)C)nc21` (single isomer, unassigned) [Example 125, (S)- or (R)-1-(1-(4-(Difluoromethoxy)phenyl)propyl)-6-(dimethylamino)-3-(hydroxymethyl)-1H-pyrazolo[3,4-d]pyrimidin-4(5H)-one], the Ki falls from 8.4 nM to 2.4 nM (3.5-fold).

Compared with `CCC(c1ccc(CC(F)(F)F)cc1)n1nc(CO)c2c(=O)[nH]c(N(C)C)nc21` (single isomer, unassigned) [Example 98, (R)- or (S)-6-(Dimethylamino)-3-(hydroxymethyl)-1-(1-(4-(2,2,2-trifluoroethyl)phenyl)propyl)-1H-pyrazolo[3,4-d]pyrimidin-4(5H)-one], `CCC(c1ccc(C(F)(F)F)cc1F)n1nc(CO)c2c(=O)[nH]c(N(C)C)nc21` (single isomer, unassigned) [Example 131, (S)- or (R)-6-(Dimethylamino)-1-(1-(2-fluoro-4-(trifluoromethyl)phenyl)propyl)-3-(hydroxymethyl)-1H-pyrazolo[3,4-d]pyrimidin-4(5H)-one] is 3-fold higher in Ki: 1.3 nM for the first, 3.9 nM for the second.

First: CCC(c1ccc(CC(F)(F)F)cc1)n1nc(CO)c2c(=O)[nH]c(N(C)C)nc21 (single isomer, unassigned) [Example 99, (S)- or (R)-6-(Dimethyiamino)-3-(hydroxymethyl)-1-(1-(4-(2,2,2-trifluoroethyl)phenyl)propyl)-1H-pyrazolo[3,4-d]pyrimidin-4(5H)-one]
Second: CCC(c1ccc(C(C)(F)F)cc1F)n1nc(CO)c2c(=O)[nH]c(N(C)C)nc21 (single isomer, unassigned) [Example 110, (R)- or (S)-1-(1-(4-(1,1-Difluoroethyl)-2-fluorophenyl)propyl)-6-(dimethylamino)-3-(hydroxymethyl)-1H-pyrazolo[3,4-d]pyrimidin-4(5H)-one]
The Ki of the first is 9-fold lower: 0.31 nM for the first, 2.8 nM for the second.

First: CC(c1ccc(C(F)F)c(F)c1)n1nc(CO)c2c(=O)[nH]c(N(C)C)nc21 (single isomer, unassigned) [Example 104, (R)- or (S)-1-(1-(4-(Difluoromethyl)-3-fluorophenyl)ethyl)-6-(dimethylamino)-3-(hydroxymethyl)-1H-pyrazolo[3,4-d]pyrimidin-4(5H)-one]
Second: CC(C)C(c1ccc(C(F)F)c(F)c1)n1nc(CO)c2c(=O)[nH]c(N(C)C)nc21 (single isomer, unassigned) [Example 115, (R)- or (S)-1-(1-(4-(Difluoromethyl)-3-fluorophenyl)-2-methylpropyl)-6-(dimethylamino)-3-(hydroxymethyl)-1H-pyrazolo[3,4-d]pyrimidin-4(5H)-one]
The Ki of the first is 190-fold higher: 40 nM for the first, 0.21 nM for the second.

Compared with `CC(c1ccc(C(C)(F)F)cc1F)n1nc(CO)c2c(=O)[nH]c(N(C)C)nc21` (single isomer, unassigned) [Example 109, (S)- or (R)-1-(1-(4-(1,1-Difluoroethyl)-2-fluorophenyl)ethyl)-6-(dimethylamino)-3-(hydroxymethyl)-1H-pyrazolo[3,4-d]pyrimidin-4(5H)-one], `CN(C)c1nc2c(c(CO)nn2C(c2ccc(C(F)F)c(F)c2)C2CC2)c(=O)[nH]1` (single isomer, unassigned) [Example 153, (S)- or (R)-1-(Cyclopropyl(4-(difluoromethyl)-3-fluorophenyl)methyl)-6-(dimethylamino)-3-(hydroxymethyl)-1H-pyrazolo[3,4-d]pyrimidin-4(5H)-one] is 2.7-fold lower in Ki: 8 nM for the first, 3 nM for the second.
